Experimental findings from PMC9000499, “New Triazolyl N^N Bidentate Rh(III), Ir(III), Ru(II) and Os(II) Complexes: Synthesis and Characterization, Probing Possible Relations between Cytotoxicity with Transfer Hydrogenation Efficacy and Interaction with Model Biomolecules” (Molecules, 2022) are described below.

One data set concerns Lymphoma cells (MT4). As to the kind of experiment: MTS in vitro cytotoxicity assay, MT4. The data set is classed as cell-based. Particulars: 96 h exposure, mean ± SD n = 6. An excerpt:
(§1) The absorbance is directly proportional to cell viability.

Data set [1] is described as follows: MTS in vitro cytotoxicity assay, HEK293. The format is cell-based. Particulars: MTS assay, 96 h exposure, mean ± SD n = 6.
Excerpt: as §1

Data set [2] concerns cervical cancer cells (Hela). Description: MTS in vitro cytotoxicity assay, Hela. To be noted: 96 h exposure, mean ± SD n = 6. The format is cell-based.
Excerpt: as §1

Another data set relates to lung cancer cells (A549). As to the kind of experiment: MTS in vitro cytotoxicity assay, A549. The format is cell-based. Particulars: 96 h exposure, mean ± SD n = 6.
Excerpt: as §1

In data set [3] the test system is normal kidney cells (BHK21). Description: MTS in vitro cytotoxicity assay, BHK21. The format is cell-based. To be noted: 96 h exposure, mean ± SD n = 6.
Excerpt: as §1

Assay in data set [4]: not given
The source holds these as a separate data set.

Data set [5] relates to cancer cells (HeLa, HEK293, A549, MT4). Particulars: summary over the selected cancer cell lines, MTS assay; for EC50: read-out: EC50 against the cancer cells. As to the method: (§2) An MTS (3-(4,5-dimethylthiazol-2-yl)-5-(3-carboxymethoxy-phenyl)-2-(4-sulfophenyl)-2H-tetrazolium) in vitro cytotoxicity assay was conducted to determine change in cell viability using a colour change. The MTS compound (yellow) is metabolised by viable cells to form a dark purple coloured compound, visible through UV-Vis spectroscopy at 490 nm. The absorbance is directly proportional to cell viability. Samples were tested across three plates in duplicate (n = 6), and the average value was reported.
(§3) HeLa (cervical cancer cells), Hek293 (kidney cancer cells), BHK21 (normal kidney cells), MT4 (lymphoma cells) and A549 (lung cancer cells) were grown using standard tissue culture techniques. The cells (1 × 10^5 cells/mL) were incubated in 96-well plates at 37 °C overnight, with the subsequent addition of the supplied compounds, at concentrations (100 µg/mL, 50.0 µg/mL, 25.0 µg/mL, 12.5 µg/mL, 6.25 µg/mL, 3.125 µg/mL and 0 µg/mL). The cells were left to incubate for four days, after which MTS (5 µL) was added to the cells. The absorbance values were measured at 490 nm after 1 h, 2 h and 4 h incubation periods, averaged, and the viability curves were drawn up.

For data set [6] the following is noted: qualitative, aqueous model system / PBS.
Data set [7] relates to all the tested cell lines (Hela, HEK293, BHK21, MT4, A549). To be noted: summary over all tested cell lines, MTS assay. The method, then:
as §2, §3

Setting [8] is: base: NaHCO3 1.0 equiv., PBS pH 7.4, 310 K, 24 h.
Where [9] appears, read: base: None, 2.0 equiv. halide abstractor AgBF4 added, PBS pH 7.4, 310 K, 24 h.
Where [10] appears, read: base: None, 1 mol% catalyst, 2.0 equiv. sodium formate, PBS pH 7.4, 310 K, 24 h.
The mark [11] stands for this setting: percentage of lactate formed, base: NaHCO3 1.0 equiv., PBS pH 7.4, 310 K, 24 h.
The mark [12] stands for this setting: percentage of lactate formed, base: None, 2.0 equiv. AgBF4 added, PBS pH 7.4, 310 K, 24 h.
Where [13] appears, read: percentage of lactate formed, base: None, PBS pH 7.4, 310 K, 24 h.

Values joined by “and” are separate entries in the source; they are usually repeats but may differ in a detail not shown here. Identical values can stand only once. Like-named read-outs stand apart in the source and are kept apart here.

As for `CC(=O)OC[C@H]1O[C@@H]([S-])[C@H](OC(C)=O)[C@@H](OC(C)=O)[C@@H]1OC(C)=O.CCP(CC)CC.[Au+]` [Auranofin, reference compound], the EC50 with Lymphoma cells (MT4) was less than 2 µM; in [1] it was less than 0.1 µM; in data set [2], less than 2 µM; in the data set with lung cancer cells (A549), 12 ± 2 µM; in [3], less than 0.1 µM.

As to `Cc1ccc(C(C)C)cc1.F[B-](F)(F)F.[Cl-].[Ru+2].c1ccc(Cn2cc(-c3ccccn3)nn2)cc1` [Complex C1, [Chlorido(2-(1-benzyl-(3-κN)-1,2,3-triazol-4-yl)-(2′-κN)-pyridine)(η^6-p-cymene)ruthenium(II)] tetrafluoroborate], the EC50 is 37 ± 5 µM in the data set on Lymphoma cells (MT4); more than 500 µM in data set [1]; more than 500 µM in data set [2]; more than 500 µM in the data set on lung cancer cells (A549); 113 ± 17 µM in [3]. Further, where the note is “pH 7.4”, the “Selectivity (%)” value was 100% and >99%. Besides, the “Time with no detectable changes in the 1H NMR spectra (stability)” value (“Time with no detectable changes” for short) in [4] (10% DMSO-d6 in phosphate-buffered D2O (pH 7.4), 37 °C) is recorded as “over 72 h”. Further, in data set [3], the “EC50 BHK21” value is reported as “low cytotoxicities”.

Consider `Cc1ccc(C(C)C)cc1.[Cl-].[Ru+2].c1ccc(Cn2cc(-c3ccccn3)nn2)cc1.c1ccc([B-](c2ccccc2)(c2ccccc2)c2ccccc2)cc1` [Complex C2, [Chlorido(2-(1-benzyl-(3-κN)-1,2,3-triazol-4-yl)-(2′-κN)-pyridine)(η^6-p-cymene)ruthenium(II)] tetraphenylborate], for which the EC50 with Lymphoma cells (MT4) was 9 ± 1 µM; in data set [1] it was 11 ± 1.5 µM; in [2], 15 ± 1.7 µM; in the data set on lung cancer cells (A549), 14 ± 4 µM; in [5], 9 to 16 µM and ≤ 16 µM; in data set [3], 151 ± 0.6 µM. In addition, the “EC50 BHK21” value in data set [3] is reported as “low cytotoxicities”. The “Solubility in aqueous model system” value in [6] is listed as “poorly soluble”.

For the compound `Cc1ccc(C(C)C)cc1.F[B-](F)(F)F.[Cl-].[Os+2].c1ccc(Cn2cc(-c3ccccn3)nn2)cc1` [Complex C3, [Chlorido(2-(1-benzyl-(3-κN)-1,2,3-triazol-4-yl)-(2′-κN)-pyridine)(η^6-p-cymene)osmium(II)] tetrafluoroborate], the EC50 in the data set on Lymphoma cells (MT4) is 133 ± 12 µM; in data set [1], more than 500 µM; in data set [2], more than 500 µM; in the data set on lung cancer cells (A549) it was more than 500 µM; in data set [3] it was more than 500 µM. In addition, the “Conversion (%)” value under setting [8] came out at 0.1 ± 0.03%, the “Conversion (%)” value under setting [9] is given as 3 ± 1% and the “Conversion (%)” value under setting [10] turned out to be 1 ± 0.3%. Besides, the “Selectivity (%)” value is, setting by setting: under setting [11], 100%; under setting [12], more than 99%; under setting [13], 100%.

With `Cc1c(C)c(C)[c-](C)c1C.F[B-](F)(F)F.[Cl-].[Rh+3].c1ccc(Cn2cc(-c3ccccn3)nn2)cc1` [Complex C4, [Chlorido(2-(1-benzyl-(3-κN)-1,2,3-triazol-4-yl)-(2′-κN)-pyridine)(η^6-pentamethylcypentadiene)rhodium(III)] tetrafluoroborate], the EC50 was 60 ± 8 µM in the data set with Lymphoma cells (MT4); more than 500 µM in data set [1]; not below 300 µM in data set [2]; more than 500 µM with lung cancer cells (A549); more than 500 µM in data set [3].

As for `Cc1c(C)c(C)[c-](C)c1C.F[B-](F)(F)F.[Cl-].[Ir+3].c1ccc(Cn2cc(-c3ccccn3)nn2)cc1` [Complex C5, [Chlorido(2-(1-benzyl-(3-κN)-1,2,3-triazol-4-yl)-(2′-κN)-pyridine)(η^6-pentamethylcypentadiene)iridium(III)] tetrafluoroborate], the EC50 in the data set with Lymphoma cells (MT4) was 67 ± 6 µM; in data set [1], more than 500 µM; in [2], more than 500 µM; with lung cancer cells (A549), more than 500 µM; in data set [3], 55 ± 1 µM. Further, the “Conversion (%)” value amounted to 0.1 ± 0.02% under setting [8], 20 ± 3% under setting [9] and 14 ± 2% under setting [10]. Also, the TON is given as not above 0.1 under setting [8], 20 under setting [9] and 14 under setting [10]. Also, the “Selectivity (%)” value is reported as 100% under setting [11], more than 99% under setting [12] and 100% under setting [13]. Besides, the “Conversion of pyruvate to lactate” value (summary, base condition not specified) is less than 14%. Besides, the “Time with no detectable changes” value in data set [4] (pH 7.4) was “over 72 h”. Moreover, in data set [3], the “EC50 BHK21” value was “low cytotoxicities”.

Turning to `Cc1ccc(C(C)C)cc1.F[B-](F)(F)F.[Cl-].[Ru+2].c1ccc(Cn2cc(-c3ccccn3)nn2)nc1` [Complex C6, [Chlorido(2-((4-(pyridine-2-yl)-(3-κN)-1,2,3-trizol-1-yl)methyl)-(2′-κN)-pyridine)(η^6-p-cymene)ruthenium(II)] tetrafluoroborate], the EC50 is 158 ± 44.2 µM in the data set with Lymphoma cells (MT4), more than 500 µM in [1] and 388 ± 70.9 µM in data set [2]. In addition, the “EC50 A549” value in the data set on lung cancer cells (A549) is “N.R”. Moreover, the “EC50 against the cancer cells” value in data set [5] is “completely inactive against most cancer cells”. In addition, in [3], the “EC50 BHK21” value is “N.R”.

As for `Cc1ccc(C(C)C)cc1.[Cl-].[Ru+2].c1ccc(Cn2cc(-c3ccccn3)nn2)nc1.c1ccc([B-](c2ccccc2)(c2ccccc2)c2ccccc2)cc1` [Complex C7, [Chlorido(2-((4-(pyridine-2-yl)-(3-κN)-1,2,3-trizol-1-yl)methyl)-(2′-κN)-pyridine)(η^6-p-cymene)ruthenium(II)] tetraphenylborate], the EC50 in the data set on Lymphoma cells (MT4) was 20 ± 4.8 µM; in data set [1], 17 ± 4.8 µM; in data set [2], 26 ± 0.8 µM; with lung cancer cells (A549), 53 ± 6 µM; in data set [3], 67 ± 7.3 µM. For the same compound, in [6], the “Solubility in aqueous model system” value is “poorly soluble”.

On to `Cc1ccc(C(C)C)cc1.F[B-](F)(F)F.[Cl-].[Os+2].c1ccc(Cn2cc(-c3ccccn3)nn2)nc1` [Complex C8, [Chlorido(2-((4-(pyridine-2-yl)-(3-κN)-1,2,3-trizol-1-yl)methyl)-(2′-κN)-pyridine)(η^6-p-cymene)osmium(II)] tetrafluoroborate], for which the “EC50 MT4” value with Lymphoma cells (MT4) was “N.R”. Moreover, the EC50 (in [1]; with lung cancer cells (A549); in data set [3]) was more than 500 µM each time. Further, the “EC50 Hela” value in data set [2] is “N.R”. Further, the “EC50 / activity against all the tested cell lines” value in data set [7] was “not active”.

Turning to `Cc1ccc(C(C)C)cc1.F[B-](F)(F)F.[Cl-].[Os+2].c1ccc(Cn2cc(-c3ccccn3)nn2)nc1` [Complex C9, [Chlorido(2-((4-(pyridine-2-yl)-(3-κN)-1,2,3-trizol-1-yl)methyl)-(2′-κN)-pyridine)(η^6-p-cymene)osmium(II)] tetrafluoroborate], the “EC50 MT4” value in the data set on Lymphoma cells (MT4) is reported as “N.R”. The EC50 was more than 400 µM in [1] and more than 500 µM in the data set on lung cancer cells (A549). Also, the “EC50 Hela” value in data set [2] is “N.R”. The “EC50 / activity against all the tested cell lines” value in [7] is on record as “not active”. Moreover, the “EC50 BHK21” value in [3] is listed as “N.R”.

`Cc1c(C)c(C)[c-](C)c1C.F[B-](F)(F)F.[Cl-].[Rh+3].c1ccc(Cn2cc(-c3ccccn3)nn2)nc1` [Complex C10, [Chlorido(2-((4-(pyridine-2-yl)-(3-κN)-1,2,3-trizol-1-yl)methyl)-(2′-κN)-pyridine)(η^6-pentamethylcypentadiene)rhodium(III)] tetrafluoroborate]: the EC50 (in the data set with Lymphoma cells (MT4); in data set [1]) was more than 500 µM throughout. Further, in data set [2], the “EC50 Hela” value was “N.R”. The “EC50 A549” value in the data set with lung cancer cells (A549) was “N.R”. Also, in data set [3], the “EC50 BHK21” value was “N.R”.

As to `Cc1c(C)c(C)[c-](C)c1C.F[B-](F)(F)F.[Cl-].[Ir+3].c1ccc(Cn2cc(-c3ccccn3)nn2)nc1` [Complex C11, [Chlorido(2-((4-(pyridine-2-yl)-(3-κN)-1,2,3-trizol-1-yl)methyl)-(2′-κN)-pyridine)(η^6-pentamethylcypentadiene)iridium(III)] tetrafluoroborate], the EC50 in the data set on Lymphoma cells (MT4) is 111 ± 7 µM; in data set [1] it was more than 500 µM; in data set [2], 2.5 ± 1 µM; with lung cancer cells (A549) it was more than 500 µM; in data set [5], less than 5 µM. Also, the “Conversion (%)” value under setting [10] is 70 ± 5%. The “Time with no detectable changes” value in [4] (pH 7.4) was “over 72 h”. Besides, in data set [3], the “EC50 BHK21” value is “non-toxic and completely inactive and N.R”.
